In experiment [1] the test system is H460 (NRF2 pathway mutant cell line with high AKR1C3 expression). Kind of experiment: In vitro cell proliferation assay (CellTiter-Glo), H460. It is filed as cell-based. The settings on record: Homo sapiens, NCI-H460, 72 h; H460 cells, 3 days, CellTiter-Glo, top concentration 10 μM; read-out: H460 Qualified absolute AC50. From the text:
(§1) Cellular Proliferation Assay to Assess Compounds Activity in H460 (NRF2 Pathway Mutant Cell Line with High AKR1C3 Expression) and Hara (NRF2 Pathway Wild Type Cell Line with Low AKR1C3 Expression).
(§2) The cell lines A549 and H460 are NRF2 pathway mutant and specifically contain genetic alterations in KEAP1 (A549: G333C, H460: D236H) (Singh A. et al., 2006 PLoS Medicine 3(10) e420). In these cell lines the NRF2 pathway is constitutively active and these cells express high levels of NRF2 protein and NRF2 pathway target gene AKR1C3. […] They have low AKR1C3 expression.
(§3) In Vitro Cell Proliferation Assay
(§4) Day 1, for H460 800 cells/well or 40 μL of 2×10^4 cells/mL and for Hara 2000 cells/well or 40 μL of 5×10^4 cells/mL medium (RPMI-1640 supplemented with 10% fetal bovine serum and 1% penicillin/streptomycin) were seeded into 384-well tissue culture plates. Day 2, compounds were serially diluted 1:5 to generate 8 point dose response curves and added to cells for a final top concentration of 10 μM. DMSO (1%) control and MG132 (30 μM) controls are added in columns 23 and 24 respectively on each plate for positive and negative control. After incubation for 3 days at 37° C./5% CO2, 30 μl of CellTiter-Glo reagent (Promega) was added and the plates were incubated for 10 min on plate shaker. The amount of luminescence was determined using a Perkin Elmer Envision plate reader. CellTiter-Glo luminescence values of cells treated with DMSO and MG132 controls were used to normalize the data and calculate percentage activity and AC50s of compounds using the Helios Software suite.
On the technique in general: ATP-based viability assays read luminescence as a measure of living cells.

The test system of experiment [2] is Hara (NRF2 pathway wild type cell line with low AKR1C3 expression). Kind of experiment: In vitro cell proliferation assay (CellTiter-Glo), Hara. The experiment is classed as cell-based. To be noted: 72 h; Hara cells, 3 days, CellTiter-Glo, top concentration 10 μM; read-out: HARA Qualified absolute AC50.
Text: as §1, §2, §3, §4

Where only a bound is given, the exact number is not on record here.

A word on the AC50: it is the midpoint of the concentration-response curve, whichever way the signal moves.

`O=C1CC2(CCN(C(=O)NCc3ccc(F)cc3OCC(F)(F)F)CC2)Nc2ccc(F)cc21` [Example 51, 6′-fluoro-N-(4-fluoro-2-(2,2,2-trifluoroethoxy)benzyl)-4′-oxo-3′,4′-dihydro-1′H-spiro[piperidine-4,2′-quinoline]-1-carboxamide]: the values for the AC50 in experiment [1] and in experiment [2] were 128 nM and 4750 nM, respectively.
The corresponding values for `O=C1CC2(CCN(C(=O)NCc3ccc(F)c(CO)c3)CC2)Nc2c(F)cc(F)cc21` [Example 132, 6′,8′-difluoro-N-(4-fluoro-3-(hydroxymethyl)benzyl)-4′-oxo-3′,4′-dihydro-1′H-spiro[piperidine-4,2′-quinoline]-1-carboxamide] are 1720 nM and greater than 10000 nM.
Consider `Nc1ccc(CNC(=O)N2CCC3(CC2)CC(=O)c2cc(F)ccc2N3)c(F)c1` [Example 98, N-(4-amino-2-fluorobenzyl)-6′-fluoro-4′-oxo-3′,4′-dihydro-1′H-spiro[piperidine-4,2′-quinoline]-1-carboxamide], for which the AC50 in experiment [1] was 498 nM; in experiment [2], greater than 10000 nM.
For `O=C(NCC(F)(F)F)c1cc(CNC(=O)N2CCC3(CC2)CC(=O)c2cc(F)ccc2N3)ccc1F` [Example 101, 6′-fluoro-N-(4-fluoro-3-((2,2,2-trifluoroethyl)carbamoyl)benzyl)-4′-oxo-3′,4′-dihydro-1′H-spiro[piperidine-4,2′-quinoline]-1-carboxamide] the same measures were 528 nM and greater than 10000 nM.
Consider `CN1c2ccc(F)cc2C(=O)CC12CCN(C(=O)NCc1ccc(F)c(C(=O)NCCO)c1)CC2` [Example 82, 6′-fluoro-N-(4-fluoro-3-((2-hydroxyethyl)carbamoyl)benzyl)-1′-methyl-4′-oxo-3′,4′-dihydro-1′H-spiro[piperidine-4,2′-quinoline]-1-carboxamide], for which the AC50 in experiment [1] was 356 nM; in experiment [2], greater than 10000 nM.
For `CN(C)c1cccc(CNC(=O)N2CCC3(CC2)CC(=O)c2cc(F)cc(F)c2N3)n1` [Example 66, N-((6-(dimethylamino)pyridin-2-yl)methyl)-6′,8′-difluoro-4′-oxo-3′,4′-dihydro-1′H-spiro[piperidine-4,2′-quinoline]-1-carboxamide] the same measures were 223 nM and greater than 10000 nM.
For `CCN1c2ccc(F)cc2C(=O)CC12CCN(C(=O)NCc1cc(NCCO)c(F)cc1F)CC2` [Example 18, N-(2,4-difluoro-5-((2-hydroxyethyl)amino)benzyl)-1′-ethyl-6′-fluoro-4′-oxo-3′,4′-dihydro-1′H-spiro[piperidine-4,2′-quinoline]-1-carboxamide] the same measures were 30 nM and 4190 nM.
Take `CN1c2ccc(F)cc2C(=O)CC12CCN(C(=O)NCc1ccc(F)c([C@@H](N)C(F)(F)F)c1)CC2` [Example 149, (R)—N-(3-(1-amino-2,2,2-trifluoroethyl)-4-fluorobenzyl)-6′-fluoro-1′-methyl-4′-oxo-3′,4′-dihydro-1′H-spiro[piperidine-4,2′-quinoline]-1-carboxamide]: the AC50 is 5430 nM in experiment [1] and greater than 10000 nM in experiment [2].
As for `O=C1CC2(CCN(C(=O)NCc3ccc(O)cc3)CC2)Nc2ccc(F)cc21` [Example 39, 6′-fluoro-N-(4-hydroxybenzyl)-4′-oxo-3′,4′-dihydro-1′H-spiro[piperidine-4,2′-quinoline]-1-carboxamide], the AC50 in experiment [1] is 82 nM; in experiment [2] it was greater than 10000 nM.
The corresponding values for `C/C=C/CN1c2ccc(F)cc2C(=O)CC12CCN(C(=O)NCc1ccc(F)cc1)CC2` [Example 85, (E)-1′-(but-2-en-1-yl)-6′-fluoro-N-(4-fluorobenzyl)-4′-oxo-3′,4′-dihydro-1′H-spiro[piperidine-4,2′-quinoline]-1-carboxamide] are 371 nM and 9490 nM.
Regarding `COc1cc(F)ccc1CNC(=O)N1CCC2(CC1)CC(=O)c1cc(F)ccc1N2` [Example 114, 6′-fluoro-N-(4-fluoro-2-methoxybenzyl)-4′-oxo-3′,4′-dihydro-1′H-spiro[piperidine-4,2′-quinoline]-1-carboxamide], the AC50 stood at 913 nM in experiment [1] and 4430 nM in experiment [2].
On to `NS(=O)(=O)Cc1cc(CNC(=O)N2CCC3(CC2)CC(=O)c2cc(F)ccc2N3)ccc1F` [Example 147, 6′-fluoro-N-(4-fluoro-3-(sulfamoylmethyl)benzyl)-4′-oxo-3′,4′-dihydro-1′H-spiro[piperidine-4,2′-quinoline]-1-carboxamide], for which the AC50 in experiment [1] is 3960 nM; in experiment [2] it was greater than 10000 nM.
`O=C1CC2(CCN(C(=O)NCc3cc[nH]n3)CC2)Nc2ccc(F)cc21` [Example 47, N-((1H-pyrazol-3-yl)methyl)-6′-fluoro-4′-oxo-3′,4′-dihydro-1′H-spiro[piperidine-4,2′-quinoline]-1-carboxamide]: the AC50 in experiment [1] was 106 nM; in experiment [2] it was greater than 10000 nM.
The corresponding values for `CCN1c2ccc(F)cc2C(=O)CC12CCN(C(=O)NCc1cc(N)c(F)cc1F)CC2` [Example 50, N-(5-amino-2,4-difluorobenzyl)-1′-ethyl-6′-fluoro-4′-oxo-3′,4′-dihydro-1′H-spiro[piperidine-4,2′-quinoline]-1-carboxamide] are 122 nM and greater than 10000 nM.
Turning to `CCN1c2ccc(F)cc2C(=O)CC12CCN(C(=O)NCc1ccc(F)c(N)c1)CC2` [Example 29, N-(3-amino-4-fluorobenzyl)-1′-ethyl-6′-fluoro-4′-oxo-3′,4′-dihydro-1′H-spiro[piperidine-4,2′-quinoline]-1-carboxamide], the AC50 in experiment [1] is 54 nM; in experiment [2], greater than 10000 nM.
For `O=C1CC2(CCN(C(=O)NCc3ccno3)CC2)Nc2ccc(F)cc21` [Example 124, 6′-fluoro-N-(isoxazol-5-ylmethyl)-4′-oxo-3′,4′-dihydro-1′H-spiro[piperidine-4,2′-quinoline]-1-carboxamide], the AC50 is 1160 nM in experiment [1] and greater than 10000 nM in experiment [2].
For `CN1c2ccc(F)cc2C(=O)CC12CCN(C(=O)NCc1ccc(F)c(CC(N)=O)c1)CC2` [Example 62, N-(3-(2-amino-2-oxoethyl)-4-fluorobenzyl)-6′-fluoro-1′-methyl-4′-oxo-3′,4′-dihydro-1′H-spiro[piperidine-4,2′-quinoline]-1-carboxamide], the AC50 in experiment [1] is 212 nM; in experiment [2], greater than 10000 nM.
The corresponding values for `Cn1ncc(Cl)c1CNC(=O)N1CCC2(CC1)CC(=O)c1cc(F)ccc1N2` [Example 93, N-((4-chloro-1-methyl-1H-pyrazol-5-yl)methyl)-6′-fluoro-4′-oxo-3′,4′-dihydro-1′H-spiro[piperidine-4,2′-quinoline]-1-carboxamide] are 5730 nM and greater than 10000 nM.
For `CC(C)S(=O)(=O)Nc1cc(CNC(=O)N2CCC3(CC2)CC(=O)c2cc(F)ccc2N3)ccc1F` [Example 23, 6′-fluoro-N-(4-fluoro-3-((1-methylethyl)sulfonamido)benzyl)-4′-oxo-3′,4′-dihydro-1′H-spiro[piperidine-4,2′-quinoline]-1-carboxamide] the same measures were 6900 nM and greater than 10000 nM.
For `CN1c2ccc(F)cc2C(=O)CC12CCN(C(=O)NCc1ccc(F)c(N)c1F)CC2` [Example 42, N-(3-amino-2,4-difluorobenzyl)-6′-fluoro-1′-methyl-4′-oxo-3′,4′-dihydro-1′H-spiro[piperidine-4,2′-quinoline]-1-carboxamide] the same measures were 94 nM and greater than 10000 nM.
As to `CN1c2ccc(F)cc2C(=O)CC12CCN(C(=O)NCc1ccc(F)c(C(C)(C)O)c1)CC2` [Example 139, 6′-fluoro-N-(4-fluoro-3-(2-hydroxypropan-2-yl)benzyl)-1′-methyl-4′-oxo-3′,4′-dihydro-1′H-spiro[piperidine-4,2′-quinoline]-1-carboxamide], the AC50 in experiment [1] was 2300 nM; in experiment [2], 8830 nM.
With `O=C(NCc1ccc(CO)cc1)c1cc(CNC(=O)N2CCC3(CC2)CC(=O)c2cc(F)ccc2N3)ccc1F` [Example 32, 6′-fluoro-N-(4-fluoro-3-((4-(hydroxymethyl)benzyl)carbamoyl)benzyl)-4′-oxo-3′,4′-dihydro-1′H-spiro[piperidine-4,2′-quinoline]-1-carboxamide], in experiment [1], the AC50 came out at 64 nM.
Take `Cc1cc(CNC(=O)N2CCC3(CC2)CC(=O)c2cc(F)ccc2N3)c(C(F)(F)F)o1` [Example 127, 6′-fluoro-N-((5-methyl-2-(trifluoromethyl)furan-3-yl)methyl)-4′-oxo-3′,4′-dihydro-1′H-spiro[piperidine-4,2′-quinoline]-1-carboxamide]: the half-maximal activity concentration (AC50) in experiment [1] amounted to 1430 nM.
As for `O=C(NC/C=C/CO)c1cc(CNC(=O)N2CCC3(CC2)CC(=O)c2cc(F)ccc2N3)ccc1F` [Example 122, (E)-6′-fluoro-N-(4-fluoro-3-((4-hydroxybut-2-en-1-yl)carbamoyl)benzyl)-4′-oxo-3′,4′-dihydro-1′H-spiro[piperidine-4,2′-quinoline]-1-carboxamide], the AC50 in experiment [1] came out at 1110 nM.

Values taken from US11970497B2, “Tricyclic AKR1C3 dependent KARS inhibitors” (Novartis AG, priority 2019, dated 2024).
